Experimental data: ChEMBL document CHEMBL1201862, “PubChem BioAssay data set” (2004)
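How tested: cells in 96-well plates exposed to compound for 48 hours at five concentrations. The concentration for 50% growth inhibition is given as GI50.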 Activity calls are given as the source filed them. Cut-off read from the data, not from the text of the source: active = GI50 up to about 1.1 µM and inactive = higher.

Columns and labels:
Experiment in all cases: NCI tumour cell line growth inhibition, 48 h
[1] = system: UACC-257
[2] = system: MDA-MB-231
[3] = system: A549
[4] = system: SF-539
[5] = system: EKVX
[6] = system: LOX IMVI
[7] = system: Hs-578T
[8] = system: OVCAR-3
[9] = system: U-251
[10] = system: HCT-15
[11] = system: MOLT-4
[12] = system: DU-145
[13] = system: NCI-H226
[14] = system: COLO 205
[15] = system: MDA-N
[16] = system: SR
[17] = system: SK-MEL-28
[18] = system: NCI/ADR-RES
[19] = system: UACC-62

Compound	GI50 [1]	GI50 [2]	GI50 [3]	GI50 [4]	GI50 [5]	GI50 [6]	GI50 [7]	GI50 [8]	GI50 [9]	GI50 [10]	GI50 [11]	GI50 [12]	GI50 [13]	GI50 [14]	GI50 [15]	GI50 [16]	GI50 [17]	GI50 [18]	GI50 [19]
CN(C)CCCNc1ccnc2cccc([N+](=O)[O-])c12	19.1 µM (inactive)	17.7 µM (inactive)	12.8 µM (inactive)	15.2 µM (inactive)	13.6 µM (inactive)	13.6 µM (inactive)	26 µM (inactive)	5.22 µM (inactive)	15.7 µM (inactive)	8.41 µM	> 100 µM (inactive)	29 µM (inactive)	15.3 µM (inactive)	3.73 µM (inactive)	17.2 µM (inactive)	> 100 µM (inactive)	14.3 µM (inactive)	–	–
CNc1nc(SC)nc2c1c(N)nn2C	> 100 µM (inactive)	> 100 µM (inactive)	> 100 µM (inactive)	–	–	> 100 µM (inactive)	95.3 µM (inactive)	> 100 µM (inactive)	> 100 µM (inactive)	> 100 µM	> 100 µM (inactive)	> 100 µM (inactive)	> 100 µM (inactive)	> 100 µM (inactive)	> 100 µM (inactive)	–	> 100 µM (inactive)	> 100 µM (inactive)	> 100 µM (inactive)
CS/C(=N\S(=O)(=O)c1ccc(Cl)cc1)NCCN/C(=N/S(=O)(=O)c1ccc(Cl)cc1)SC	> 100 µM (inactive)	> 100 µM (inactive)	–	61.4 µM (inactive)	18.7 µM (inactive)	> 100 µM (inactive)	–	32 µM (inactive)	18 µM (inactive)	> 100 µM	> 100 µM (inactive)	> 100 µM (inactive)	–	> 100 µM (inactive)	> 100 µM (inactive)	> 100 µM (inactive)	> 100 µM (inactive)	> 100 µM (inactive)	> 100 µM (inactive)
CC(=O)Nc1cc2c(cc1O)CC[C@@H]1[C@@H]2CC[C@]2(C)[C@@H](O)CC[C@@H]12	43.4 µM (inactive)	55 µM (inactive)	36.6 µM (inactive)	34.5 µM (inactive)	33 µM (inactive)	34.6 µM (inactive)	74.1 µM (inactive)	–	42 µM (inactive)	15.3 µM	34.7 µM (inactive)	–	30.8 µM (inactive)	30 µM (inactive)	18.1 µM (inactive)	20.8 µM (inactive)	63.4 µM (inactive)	19.9 µM (inactive)	–
CC12CCC(/C(=N/c3ccc([N+](=O)[O-])cc3)C1=O)C2(C)C (stereo not drawn)	32.4 µM (inactive)	18.3 µM (inactive)	36.1 µM (inactive)	18.2 µM (inactive)	20.1 µM (inactive)	14.7 µM (inactive)	–	21.4 µM (inactive)	24.9 µM (inactive)	24.6 µM	–	25.7 µM (inactive)	> 100 µM (inactive)	19.4 µM (inactive)	–	22.5 µM (inactive)	12 µM (inactive)	23.3 µM (inactive)	> 100 µM (inactive)
CC(=O)c1nc2ccccc2n1CC(=O)c1ccc([N+](=O)[O-])cc1	33.6 µM (inactive)	26.1 µM (inactive)	11.4 µM (inactive)	22.3 µM (inactive)	> 100 µM (inactive)	7.26 µM (inactive)	6.68 µM (inactive)	13.5 µM (inactive)	4.38 µM (inactive)	42.3 µM	5.52 µM (inactive)	31.6 µM (inactive)	21.5 µM (inactive)	34.8 µM (inactive)	–	7.45 µM (inactive)	52.6 µM (inactive)	13.4 µM (inactive)	10 µM (inactive)
O=C(c1ccc2ccccc2c1)C1S(=O)(=O)OCCOS1(=O)=O	> 100 µM (inactive)	–	> 100 µM (inactive)	–	> 100 µM (inactive)	> 100 µM (inactive)	–	> 100 µM (inactive)	> 100 µM (inactive)	> 100 µM	> 100 µM (inactive)	> 100 µM (inactive)	–	> 100 µM (inactive)	> 100 µM (inactive)	> 100 µM (inactive)	> 100 µM (inactive)	> 100 µM (inactive)	–
CCOC1CCC2C(CCC(/C=C/c3ccc(O)c4ncccc34)N2C)C1 (stereo not drawn)	–	–	25.1 µM (inactive)	3.67 µM (inactive)	4.98 µM (inactive)	–	15.2 µM (inactive)	–	15.4 µM (inactive)	40.8 µM	3.72 µM (inactive)	10.3 µM (inactive)	37.4 µM (inactive)	3.56 µM (inactive)	38.5 µM (inactive)	3.21 µM (inactive)	29.6 µM (inactive)	> 100 µM (inactive)	8.89 µM (inactive)
C#CCOC(=O)C=[N+]=[N-]	> 10 µM (inactive)	> 10 µM (inactive)	> 10 µM (inactive)	> 10 µM (inactive)	> 10 µM (inactive)	> 10 µM (inactive)	–	> 10 µM (inactive)	> 10 µM (inactive)	> 10 µM	> 10 µM (inactive)	> 10 µM (inactive)	> 10 µM (inactive)	–	> 10 µM (inactive)	> 10 µM (inactive)	> 10 µM (inactive)	–	> 10 µM (inactive)
CCOc1cc2c(OCc3ccccc3)cc3c4cc(OC)c(OC)cc4c[n+](C)c3c2cc1OC	1.62 µM (inactive)	2.29 µM (inactive)	4.82 µM (inactive)	1.3 µM (inactive)	17.8 µM (inactive)	2.07 µM (inactive)	–	1.06 µM (active)	0.601 µM (active)	59.6 µM	0.818 µM (active)	3.62 µM (inactive)	1.5 µM (inactive)	0.259 µM (active)	0.857 µM (active)	0.631 µM (active)	1.36 µM (inactive)	> 100 µM (inactive)	1.27 µM (inactive)
CC(CO)(Nc1ccc([N+](=O)[O-])cc1[N+](=O)[O-])C(=O)O (stereo not drawn)	24.9 µM (inactive)	79.8 µM (inactive)	38.3 µM (inactive)	34 µM (inactive)	29.2 µM (inactive)	22.5 µM (inactive)	17.3 µM (inactive)	22.2 µM (inactive)	22.9 µM (inactive)	17.6 µM	–	22.8 µM (inactive)	> 100 µM (inactive)	16.9 µM (inactive)	–	12.1 µM (inactive)	22.1 µM (inactive)	35.5 µM (inactive)	33.7 µM (inactive)
CC(C)(C)OC(=O)N(CCCN)CCCCN	> 100 µM (inactive)	0.0673 µM (active)	> 100 µM (inactive)	> 100 µM (inactive)	> 100 µM (inactive)	–	> 100 µM (inactive)	> 100 µM (inactive)	> 100 µM (inactive)	> 100 µM	> 100 µM (inactive)	> 100 µM (inactive)	> 100 µM (inactive)	> 100 µM (inactive)	–	> 100 µM (inactive)	> 100 µM (inactive)	> 100 µM (inactive)	> 100 µM (inactive)
CC1(C)C2CC(O)C1CCC2=O (stereo not drawn)	> 100 µM (inactive)	> 100 µM (inactive)	> 100 µM (inactive)	> 100 µM (inactive)	–	> 100 µM (inactive)	> 100 µM (inactive)	> 100 µM (inactive)	> 100 µM (inactive)	> 100 µM	> 100 µM (inactive)	> 100 µM (inactive)	> 100 µM (inactive)	> 100 µM (inactive)	> 100 µM (inactive)	–	> 100 µM (inactive)	> 100 µM (inactive)	> 100 µM (inactive)
CCOC(=O)c1c(N2CCN(C)CC2)[nH]c(=O)c(C(c2c(Cl)cccc2Cl)c2c(O)c(C(=O)OCC)c(N3CCN(C)CC3)[nH]c2=O)c1O	21.3 µM (inactive)	25.5 µM (inactive)	27.9 µM (inactive)	19.4 µM (inactive)	14.5 µM (inactive)	34.5 µM (inactive)	33.8 µM (inactive)	34.8 µM (inactive)	23.1 µM (inactive)	30.7 µM	23.5 µM (inactive)	17.8 µM (inactive)	28.6 µM (inactive)	33.1 µM (inactive)	–	21.9 µM (inactive)	17.9 µM (inactive)	71.1 µM (inactive)	21.5 µM (inactive)
O=c1[nH]nc(Cc2ccc(Cl)cc2)n1/N=C\c1ccc(/C=N/n2c(Cc3ccc(Cl)cc3)n[nH]c2=O)cc1	> 100 µM (inactive)	17.2 µM (inactive)	> 100 µM (inactive)	–	> 100 µM (inactive)	> 100 µM (inactive)	35.7 µM (inactive)	81.7 µM (inactive)	26.6 µM (inactive)	> 100 µM	> 100 µM (inactive)	> 100 µM (inactive)	96.6 µM (inactive)	> 100 µM (inactive)	> 100 µM (inactive)	–	> 100 µM (inactive)	90.2 µM (inactive)	> 100 µM (inactive)
O=C1/C(=C/c2cccc(O)c2)COc2ccccc21	2.64 µM (inactive)	8.2 µM (inactive)	20 µM (inactive)	9.86 µM (inactive)	16.5 µM (inactive)	1.95 µM (inactive)	9.77 µM (inactive)	2.01 µM (inactive)	1.87 µM (inactive)	1.42 µM	2.24 µM (inactive)	14.2 µM (inactive)	11.4 µM (inactive)	13.5 µM (inactive)	–	2.16 µM (inactive)	4.45 µM (inactive)	2.17 µM (inactive)	3.88 µM (inactive)
CCOC(=O)C1=CC(C)(C(=O)OCC)Nc2c(nc(N)[nH]c2=O)N1 (stereo not drawn)	> 10 µM (inactive)	> 10 µM (inactive)	> 10 µM (inactive)	> 10 µM (inactive)	> 10 µM (inactive)	> 10 µM (inactive)	> 10 µM (inactive)	> 10 µM (inactive)	> 10 µM (inactive)	> 10 µM	> 10 µM (inactive)	> 10 µM (inactive)	> 10 µM (inactive)	> 10 µM (inactive)	> 10 µM (inactive)	–	> 10 µM (inactive)	> 10 µM (inactive)	–
